Target: Autotaxin (Homo sapiens, UniProt Q13822)
Experiment: Enzyme Inhibition Assay
Protocol: ATX inhibition was measured by a fluorescence quenching assay using a specifically labeled substrate analogue (MR121 substrate). To obtain this MR121 substrate, BOC and TBS protected 6-amino-hexanoic acid (R)-3-({2-[3-(2-{2-[2-(2-amino-ethoxy)-ethoxy]-ethoxy}-ethoxy)-propionylamino]-ethoxy}-hydroxy-phosphoryloxy)-2-hydroxy-propyl ester (Ferguson et al., Org Lett 2006, 8 (10), 2023) was labeled with MR121 fluorophore (CAS 185308-24-1, 1-(3-carboxypropyl)-11-ethyl-1,2,3,4,8,9,10,11-octahydro-dipyrido[3,2-b:2′,3′-i]phenoxazin-13-ium) on the free amine of the ethanolamine side and then, after deprotection, subsequently with tryptophan on the side of the aminohexanoic acid.Assay working solutions were made as follows:Assay buffer (50 mM Tris-HCl, 140 mM NaCl, 5 mM KCl, 1 mM CaCl2, 1 mM MgCl2, 0.01% Triton-X-100, pH 8.0;ATX solution: ATX (human His-tagged) stock solution (1.08 mg/mL in 20 mM bicine, pH 8.5, 0.15 M NaCl, 10% glycerol, 0.3% CHAPS, 0.02% NaN3), diluted to 1.4-2.5× final concentration in assay buffer;MR121 substrate solution: MR121 substrate stock solution (800 μM MR121 substrate in DMSO), diluted to 2-5× final concentration in assay buffer.

- IC50: 17 nM
SMILES: O=C(c1ccc2cc(Br)ccc2c1)N1C[C@@H]2[C@H](C1)[C@H]1CN(C(=O)c3ccc4[nH]nnc4c3)C[C@@H]21 [US10849881, Example 1.004]
